From patent US5710150A, “Benzazepine derivative, pharmaceutical composition thereof, and intermediate thereof” (Yamanouchi Pharmaceutical Co., Ltd., priority 1993, dated 1998)

Assay: Water diuresis action in conscious rats (oral administration)
Format: in vivo, male Wister rats
Conditions: 3 mg/kg oral
Description: Each compound to be tested was suspended in 0.5% methylcellulose solution and orally administered in a dose of 3 mg/kg to male Wister rats (body weight, 270 to 300 g) which have been subjected to fasting with no water for 16 to 20 hours. Using a metabolic cage, urine samples were collected just after the administration of each test sample until 4 hours thereafter to measure the amount of urine.

Cc1ccccc1C(=O)Nc1ccc(C(=O)N2CCCC(N(C)C)c3ccccc32)cc1 (centres unmarked) [Comparative compound (1), OPC-31260]
amount of urine compared with solvent-administered group, 2 to 4 hours (in words) (2 hours to 4 hours after administration): almost the same as that in the solvent-administered group | amount of urine relative to solvent-administered group, 0 to 2 hours (just after administration to 2 hours later): 11 times
